# The NIST ThermoML archive (doi:10.1021/acs.jced.8b00236)
# ± gives the expanded uncertainty stated by the source.
# Experiment: mn = molality of the nth substance listed, in mol/kg
# Conditions: 75 kPa, Liquid; for viscosity: Capillary tube (Ostwald / Ubbelohde) method; for speed of sound: Frequency=3 MHz, Single path-length method; for mass density: Vibrating tube method
structure (smiles),measurement,setting,value
NCCCC(=O)O [4-aminobutanoic acid] + O,viscosity,"288.15 K, m1 = 0.1389",1.204 ± 0.025 mPa·s
same,viscosity,"288.15 K, m1 = 0.2788",1.252 ± 0.026 mPa·s
same,viscosity,"288.15 K, m1 = 0.4194",1.313 ± 0.027 mPa·s
same,viscosity,"288.15 K, m1 = 0.56",1.376 ± 0.029 mPa·s
same,viscosity,"288.15 K, m1 = 0.702",1.452 ± 0.03 mPa·s
same,viscosity,"288.15 K, m1 = 0.8449",1.515 ± 0.031 mPa·s
same,viscosity,"288.15 K, m1 = 0.9892",1.591 ± 0.033 mPa·s
same,viscosity,"288.15 K, m1 = 1.132",1.672 ± 0.035 mPa·s
same,speed of sound,"288.15 K, m1 = 0.1389",1478.5 ± 4 m/s
same,speed of sound,"288.15 K, m1 = 0.2788",1490.3 ± 4 m/s
same,speed of sound,"288.15 K, m1 = 0.4194",1501.8 ± 4 m/s
same,speed of sound,"288.15 K, m1 = 0.56",1513 ± 4 m/s
same,speed of sound,"288.15 K, m1 = 0.702",1523.9 ± 4 m/s
same,speed of sound,"288.15 K, m1 = 0.8449",1534.5 ± 4 m/s
same,speed of sound,"288.15 K, m1 = 0.9892",1544.8 ± 4 m/s
same,speed of sound,"288.15 K, m1 = 1.132",1554.5 ± 4 m/s
same,mass density,"288.15 K, m1 = 0.1389",1003.34 ± 0.3 kg/m3
same,mass density,"288.15 K, m1 = 0.2788",1007.5 ± 0.3 kg/m3
same,mass density,"288.15 K, m1 = 0.4194",1011.57 ± 0.3 kg/m3
same,mass density,"288.15 K, m1 = 0.56",1015.51 ± 0.3 kg/m3
same,mass density,"288.15 K, m1 = 0.702",1019.39 ± 0.3 kg/m3
same,mass density,"288.15 K, m1 = 0.8449",1023.19 ± 0.3 kg/m3
same,mass density,"288.15 K, m1 = 0.9892",1026.91 ± 0.3 kg/m3
same,mass density,"288.15 K, m1 = 1.132",1030.5 ± 0.3 kg/m3
same,viscosity,"293.15 K, m1 = 0.1389",1.054 ± 0.022 mPa·s
same,viscosity,"293.15 K, m1 = 0.2788",1.098 ± 0.023 mPa·s
same,viscosity,"293.15 K, m1 = 0.4194",1.148 ± 0.024 mPa·s
same,viscosity,"293.15 K, m1 = 0.56",1.206 ± 0.025 mPa·s
same,viscosity,"293.15 K, m1 = 0.702",1.265 ± 0.026 mPa·s
same,viscosity,"293.15 K, m1 = 0.8449",1.325 ± 0.028 mPa·s
same,viscosity,"293.15 K, m1 = 0.9892",1.393 ± 0.029 mPa·s
same,viscosity,"293.15 K, m1 = 1.132",1.464 ± 0.03 mPa·s
same,speed of sound,"293.15 K, m1 = 0.1389",1494.4 ± 4 m/s
same,speed of sound,"293.15 K, m1 = 0.2788",1506 ± 4 m/s
same,speed of sound,"293.15 K, m1 = 0.4194",1517.4 ± 4 m/s
same,speed of sound,"293.15 K, m1 = 0.56",1528.5 ± 4 m/s
same,speed of sound,"293.15 K, m1 = 0.702",1539.6 ± 4 m/s
same,speed of sound,"293.15 K, m1 = 0.8449",1550.5 ± 4 m/s
same,speed of sound,"293.15 K, m1 = 0.9892",1561.2 ± 4 m/s
same,speed of sound,"293.15 K, m1 = 1.132",1571.5 ± 4 m/s
same,mass density,"293.15 K, m1 = 0.1389",1002.43 ± 0.3 kg/m3
same,mass density,"293.15 K, m1 = 0.2788",1006.57 ± 0.3 kg/m3
same,mass density,"293.15 K, m1 = 0.4194",1010.61 ± 0.3 kg/m3
same,mass density,"293.15 K, m1 = 0.56",1014.53 ± 0.3 kg/m3
same,mass density,"293.15 K, m1 = 0.702",1018.37 ± 0.3 kg/m3
same,mass density,"293.15 K, m1 = 0.8449",1022.12 ± 0.3 kg/m3
same,mass density,"293.15 K, m1 = 0.9892",1025.79 ± 0.3 kg/m3
same,mass density,"293.15 K, m1 = 1.132",1029.32 ± 0.3 kg/m3
same,viscosity,"298.15 K, m1 = 0.1389",0.936 ± 0.019 mPa·s
same,viscosity,"298.15 K, m1 = 0.2788",0.975 ± 0.02 mPa·s
same,viscosity,"298.15 K, m1 = 0.4194",1.022 ± 0.021 mPa·s
same,viscosity,"298.15 K, m1 = 0.56",1.068 ± 0.022 mPa·s
same,viscosity,"298.15 K, m1 = 0.702",1.125 ± 0.023 mPa·s
same,viscosity,"298.15 K, m1 = 0.8449",1.178 ± 0.024 mPa·s
same,viscosity,"298.15 K, m1 = 0.9892",1.243 ± 0.026 mPa·s
same,viscosity,"298.15 K, m1 = 1.132",1.307 ± 0.027 mPa·s
same,speed of sound,"298.15 K, m1 = 0.1389",1508.1 ± 4 m/s
same,speed of sound,"298.15 K, m1 = 0.2788",1519.3 ± 4 m/s
same,speed of sound,"298.15 K, m1 = 0.4194",1530.3 ± 4 m/s
same,speed of sound,"298.15 K, m1 = 0.56",1541.2 ± 4 m/s
same,speed of sound,"298.15 K, m1 = 0.702",1551.9 ± 4 m/s
same,speed of sound,"298.15 K, m1 = 0.8449",1562.2 ± 4 m/s
same,speed of sound,"298.15 K, m1 = 0.9892",1572.5 ± 4 m/s
same,speed of sound,"298.15 K, m1 = 1.132",1582.3 ± 4 m/s
same,mass density,"298.15 K, m1 = 0.1389",1001.25 ± 0.3 kg/m3
same,mass density,"298.15 K, m1 = 0.2788",1005.35 ± 0.3 kg/m3
same,mass density,"298.15 K, m1 = 0.4194",1009.36 ± 0.3 kg/m3
same,mass density,"298.15 K, m1 = 0.56",1013.22 ± 0.3 kg/m3
same,mass density,"298.15 K, m1 = 0.702",1017.01 ± 0.3 kg/m3
same,mass density,"298.15 K, m1 = 0.8449",1020.7 ± 0.3 kg/m3
same,mass density,"298.15 K, m1 = 0.9892",1024.31 ± 0.3 kg/m3
same,mass density,"298.15 K, m1 = 1.132",1027.75 ± 0.3 kg/m3
same,viscosity,"303.15 K, m1 = 0.1389",0.835 ± 0.017 mPa·s
same,viscosity,"303.15 K, m1 = 0.2788",0.874 ± 0.018 mPa·s
same,viscosity,"303.15 K, m1 = 0.4194",0.91 ± 0.019 mPa·s
same,viscosity,"303.15 K, m1 = 0.56",0.955 ± 0.02 mPa·s
same,viscosity,"303.15 K, m1 = 0.702",0.994 ± 0.021 mPa·s
same,viscosity,"303.15 K, m1 = 0.8449",1.037 ± 0.022 mPa·s
same,viscosity,"303.15 K, m1 = 0.9892",1.095 ± 0.023 mPa·s
same,viscosity,"303.15 K, m1 = 1.132",1.156 ± 0.024 mPa·s
same,speed of sound,"303.15 K, m1 = 0.1389",1520.1 ± 4 m/s
same,speed of sound,"303.15 K, m1 = 0.2788",1530.9 ± 4 m/s
same,speed of sound,"303.15 K, m1 = 0.4194",1541.6 ± 4 m/s
same,speed of sound,"303.15 K, m1 = 0.56",1552.1 ± 4 m/s
same,speed of sound,"303.15 K, m1 = 0.702",1562.4 ± 4 m/s
same,speed of sound,"303.15 K, m1 = 0.8449",1572.4 ± 4 m/s
same,speed of sound,"303.15 K, m1 = 0.9892",1582.3 ± 4 m/s
same,speed of sound,"303.15 K, m1 = 1.132",1591.8 ± 4 m/s
same,mass density,"303.15 K, m1 = 0.1389",999.81 ± 0.3 kg/m3
same,mass density,"303.15 K, m1 = 0.2788",1003.88 ± 0.3 kg/m3
same,mass density,"303.15 K, m1 = 0.4194",1007.84 ± 0.3 kg/m3
same,mass density,"303.15 K, m1 = 0.56",1011.67 ± 0.3 kg/m3
same,mass density,"303.15 K, m1 = 0.702",1015.43 ± 0.3 kg/m3
same,mass density,"303.15 K, m1 = 0.8449",1019.1 ± 0.3 kg/m3
same,mass density,"303.15 K, m1 = 0.9892",1022.68 ± 0.3 kg/m3
same,mass density,"303.15 K, m1 = 1.132",1026.12 ± 0.3 kg/m3
same,viscosity,"308.15 K, m1 = 0.1389",0.753 ± 0.016 mPa·s
same,viscosity,"308.15 K, m1 = 0.2788",0.788 ± 0.016 mPa·s
same,viscosity,"308.15 K, m1 = 0.4194",0.822 ± 0.017 mPa·s
same,viscosity,"308.15 K, m1 = 0.56",0.853 ± 0.018 mPa·s
same,viscosity,"308.15 K, m1 = 0.702",0.894 ± 0.019 mPa·s
same,viscosity,"308.15 K, m1 = 0.8449",0.94 ± 0.02 mPa·s
same,viscosity,"308.15 K, m1 = 0.9892",0.991 ± 0.021 mPa·s
same,viscosity,"308.15 K, m1 = 1.132",1.041 ± 0.022 mPa·s
same,speed of sound,"308.15 K, m1 = 0.1389",1530.4 ± 4 m/s
same,speed of sound,"308.15 K, m1 = 0.2788",1540.9 ± 4 m/s
same,speed of sound,"308.15 K, m1 = 0.4194",1551.3 ± 4 m/s
same,speed of sound,"308.15 K, m1 = 0.56",1561.4 ± 4 m/s
same,speed of sound,"308.15 K, m1 = 0.702",1571.3 ± 4 m/s
same,speed of sound,"308.15 K, m1 = 0.8449",1581 ± 4 m/s
same,speed of sound,"308.15 K, m1 = 0.9892",1590.6 ± 4 m/s
same,speed of sound,"308.15 K, m1 = 1.132",1599.8 ± 4 m/s
same,mass density,"308.15 K, m1 = 0.1389",998.155 ± 0.3 kg/m3
same,mass density,"308.15 K, m1 = 0.2788",1002.19 ± 0.3 kg/m3
same,mass density,"308.15 K, m1 = 0.4194",1006.12 ± 0.3 kg/m3
same,mass density,"308.15 K, m1 = 0.56",1009.94 ± 0.3 kg/m3
same,mass density,"308.15 K, m1 = 0.702",1013.68 ± 0.3 kg/m3
same,mass density,"308.15 K, m1 = 0.8449",1017.35 ± 0.3 kg/m3
same,mass density,"308.15 K, m1 = 0.9892",1020.93 ± 0.3 kg/m3
same,mass density,"308.15 K, m1 = 1.132",1024.37 ± 0.3 kg/m3
